Experimental data taken from patent US20230365592A1 (Agios Pharmaceuticals, Inc., priority 2022, published 2023).

Biological target: T1, human PAH with the R408W mutation (Homo sapiens, UniProt P00439, R408W)
T1 construct: expressed in transfected cells
T1 sequence (P00439 1-452 R408W): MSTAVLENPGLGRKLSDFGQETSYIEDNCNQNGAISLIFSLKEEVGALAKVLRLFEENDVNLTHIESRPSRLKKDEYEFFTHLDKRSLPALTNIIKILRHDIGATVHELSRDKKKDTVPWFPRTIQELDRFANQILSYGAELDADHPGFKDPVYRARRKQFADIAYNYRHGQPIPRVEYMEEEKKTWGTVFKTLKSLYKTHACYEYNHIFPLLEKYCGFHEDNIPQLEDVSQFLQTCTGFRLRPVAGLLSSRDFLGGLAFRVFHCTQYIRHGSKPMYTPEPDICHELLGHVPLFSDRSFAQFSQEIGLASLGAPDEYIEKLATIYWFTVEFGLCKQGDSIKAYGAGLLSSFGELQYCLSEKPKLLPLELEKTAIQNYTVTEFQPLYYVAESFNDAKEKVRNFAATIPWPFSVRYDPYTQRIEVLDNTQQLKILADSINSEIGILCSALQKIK
Assay: Cell Based Phenylalanine Flux Assay;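 further: after compound treatment, cells received sepiapterin plus isotope-labelled Phenylalanine for 4 hours, then labelled Tyrosine in the medium was quantified, 10-point 2-fold dilution series run in duplicate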
Settings: A375 cells expressing human R408W PAH; 24 hrs compound incubation; 13C-Tyrosine by LC-MS; average where tested multiple times; read-out: AC50

| AC50 [nM] | SMILES |
| --- | --- |
| 500 to 1000 | CC(C)(C)c1nnc(C(=O)N2CCc3[nH]cnc3[C@H]2c2cc3c(OC(F)(F)F)cccn3n2)o1 [Example 1759, (S)-(5-(tert-butyl)-1,3,4-oxadiazol-2-yl)(4-(4-(trifluoromethoxy)pyrazolo[1,5-a]pyridin-2-yl)-6,7-dihydro-1H-imidazo[4,5-c]pyridin-5(4H)-yl)methanone] |
| < 500 | FC(F)c1cccn2nc([C@@H]3c4nc[nH]c4CCN3c3nnc(C(F)(F)F)o3)cc12 [Example 1767, (S)-2-(4-(4-(difluoromethyl)pyrazolo[1,5-a]pyridin-2-yl)-6,7-dihydro-1H-imidazo[4,5-c]pyridin-5(4H)-yl)-5-(trifluoromethyl)-1,3,4-oxadiazole] |
| < 500 | FC(F)c1cccn2nc([C@@H]3c4nc[nH]c4CCN3c3ncc(C(F)(F)F)cn3)cc12 [Example 1776, (S)-4-(4-(difluoromethyl)pyrazolo[1,5-a]pyridin-2-yl)-5-(5-(trifluoromethyl)pyrimidin-2-yl)-4,5,6,7-tetrahydro-1H-imidazo[4,5-c]pyridine] |
| > 5000 | FC(F)c1cccn2nc([C@H]3c4nc[nH]c4CCN3c3ncc(C(F)(F)F)cn3)cc12 [Example 1777, (R)-4-(4-(difluoromethyl)pyrazolo[1,5-a]pyridin-2-yl)-5-(5-(trifluoromethyl)pyrimidin-2-yl)-4,5,6,7-tetrahydro-1H-imidazo[4,5-c]pyridine] |
| < 500 | FC(F)(F)c1cnc(N2CCc3[nH]cnc3[C@H]2c2cc3c(Cl)cccn3n2)nc1 [Example 1780, (S)-4-(4-chloropyrazolo[1,5-a]pyridin-2-yl)-5-(5-(trifluoromethyl)pyrimidin-2-yl)-4,5,6,7-tetrahydro-1H-imidazo[4,5-c]pyridine] |
| > 5000 | FC(F)(F)c1cnc(N2CCc3[nH]cnc3[C@@H]2c2cc3c(Cl)cccn3n2)nc1 [Example 1781, (R)-4-(4-chloropyrazolo[1,5-a]pyridin-2-yl)-5-(5-(trifluoromethyl)pyrimidin-2-yl)-4,5,6,7-tetrahydro-1H-imidazo[4,5-c]pyridine] |

More lines, now with the values behind:

| SMILES | AC50 [nM] |
| --- | --- |
| O=C(c1nnc(-c2ccccn2)o1)N1CCc2[nH]cnc2[C@H]1c1cc2c(OC(F)(F)F)cccn2n1 [Example 1760, (S)-(5-(pyridin-2-yl)-1,3,4-oxadiazol-2-yl)(4-(4-(trifluoromethoxy)pyrazolo[1,5-a]pyridin-2-yl)-6,7-dihydro-1H-imidazo[4,5-c]pyridin-5(4H)-yl)methanone] | < 500 |
| FC(F)c1cccn2nc([C@@H]3c4nc[nH]c4CCN3c3ncccn3)cc12 [Example 1762, (S)-4-(4-(difluoromethyl)pyrazolo[1,5-a]pyridin-2-yl)-5-(pyrimidin-2-yl)-4,5,6,7-tetrahydro-1H-imidazo[4,5-c]pyridine] | < 500 |
| FC(F)c1cccn2nc([C@H]3c4nc[nH]c4CCN3c3ncccn3)cc12 [Example 1763, (R)-4-(4-(difluoromethyl)pyrazolo[1,5-a]pyridin-2-yl)-5-(pyrimidin-2-yl)-4,5,6,7-tetrahydro-1H-imidazo[4,5-c]pyridine] | 1000 to 5000 |
| FC(F)(F)c1cccc2cc([C@H]3c4nc[nH]c4CCN3c3ncccn3)nn12 [Example 1764, (R)-5-(pyrimidin-2-yl)-4-(7-(trifluoromethyl)pyrazolo[1,5-a]pyridin-2-yl)-4,5,6,7-tetrahydro-1H-imidazo[4,5-c]pyridine] | 1000 to 5000 |
| FC(F)(F)c1cccc2cc([C@@H]3c4nc[nH]c4CCN3c3ncccn3)nn12 [Example 1765, (S)-5-(pyrimidin-2-yl)-4-(7-(trifluoromethyl)pyrazolo[1,5-a]pyridin-2-yl)-4,5,6,7-tetrahydro-1H-imidazo[4,5-c]pyridine] | 500 to 1000 |
| O=C(c1cnn2cc(C3CC3)ccc12)N1CCc2[nH]cnc2[C@H]1c1cc2c(Cl)cccn2n1 [Example 1768, (S)-(4-(4-chloropyrazolo[1,5-a]pyridin-2-yl)-6,7-dihydro-1H-imidazo[4,5-c]pyridin-5(4H)-yl)(6-cyclopropylpyrazolo[1,5-a]pyridin-3-yl)methanone] | < 500 |
| O=C(c1cnn2cc(C3CC3)ccc12)N1CCc2[nH]cnc2[C@@H]1c1cc2c(Cl)cccn2n1 [Example 1769, (R)-(4-(4-chloropyrazolo[1,5-a]pyridin-2-yl)-6,7-dihydro-1H-imidazo[4,5-c]pyridin-5(4H)-yl)(6-cyclopropylpyrazolo[1,5-a]pyridin-3-yl)methanone] | 1000 to 5000 |
| CN(C)c1ccc2c(C(=O)N3CCc4[nH]cnc4[C@H]3c3cc4c(C(F)F)cccn4n3)cnn2c1 [Example 1770, (S)-(4-(4-(difluoromethyl)pyrazolo[1,5-a]pyridin-2-yl)-6,7-dihydro-1H-imidazo[4,5-c]pyridin-5(4H)-yl)(6-(dimethylamino)pyrazolo[1,5-a]pyridin-3-yl)methanone] | 500 to 1000 |
| CN(C)c1ccc2c(C(=O)N3CCc4[nH]cnc4[C@@H]3c3cc4c(C(F)F)cccn4n3)cnn2c1 [Example 1771, (R)-(4-(4-(difluoromethyl)pyrazolo[1,5-a]pyridin-2-yl)-6,7-dihydro-1H-imidazo[4,5-c]pyridin-5(4H)-yl)(6-(dimethylamino)pyrazolo[1,5-a]pyridin-3-yl)methanone] | > 5000 |
| CN(C)c1ccc2c(C(=O)N3CCc4[nH]cnc4[C@@H]3c3cc4c(F)cccn4n3)cnn2c1 [Example 1773, (R)-(6-(dimethylamino)pyrazolo[1,5-a]pyridin-3-yl)(4-(4-fluoropyrazolo[1,5-a]pyridin-2-yl)-6,7-dihydro-1H-imidazo[4,5-c]pyridin-5(4H)-yl)methanone] | > 5000 |
| FC(F)(F)c1cnc(N2CCc3[nH]cnc3[C@H]2c2cc3c(C(F)(F)F)cccn3n2)nc1 [Example 1774, (S)-4-(4-(trifluoromethyl)pyrazolo[1,5-a]pyridin-2-yl)-5-(5-(trifluoromethyl)pyrimidin-2-yl)-4,5,6,7-tetrahydro-1H-imidazo[4,5-c]pyridine] | < 500 |
| FC(F)(F)c1cnc(N2CCc3[nH]cnc3[C@@H]2c2cc3c(C(F)(F)F)cccn3n2)nc1 [Example 1775, (R)-4-(4-(trifluoromethyl)pyrazolo[1,5-a]pyridin-2-yl)-5-(5-(trifluoromethyl)pyrimidin-2-yl)-4,5,6,7-tetrahydro-1H-imidazo[4,5-c]pyridine] | > 5000 |
| O=C(c1nnc(-c2cnn(C(F)F)c2)o1)N1CCc2[nH]cnc2[C@H]1c1cc2c(OC(F)(F)F)cccn2n1 [Example 1782, (S)-(5-(1-(difluoromethyl)-1H-pyrazol-4-yl)-1,3,4-oxadiazol-2-yl)(4-(4-(trifluoromethoxy)pyrazolo[1,5-a]pyridin-2-yl)-6,7-dihydro-1H-imidazo[4,5-c]pyridin-5(4H)-yl)methanone] | 500 to 1000 |
| COCCc1ccc2c(C(=O)N3CCc4[nH]cnc4[C@H]3c3cc4c(C(F)(F)F)cccn4n3)cnn2c1 [Example 1784, (S)-(6-(2-methoxyethyl)pyrazolo[1,5-a]pyridin-3-yl)(4-(4-(trifluoromethyl)pyrazolo[1,5-a]pyridin-2-yl)-1,4,6,7-tetrahydro-5H-imidazo[4,5-c]pyridin-5-yl)methanone] | 500 to 1000 |
| Cc1ccc2c(C(=O)N3CCc4[nH]cnc4[C@H]3c3cc4cccc(F)n4n3)cnn2c1 [Example 1786, (S)-(4-(7-fluoropyrazolo[1,5-a]pyridin-2-yl)-6,7-dihydro-1H-imidazo[4,5-c]pyridin-5(4H)-yl)(6-methylpyrazolo[1,5-a]pyridin-3-yl)methanone] | 500 to 1000 |
